The record followed here is US5225566A, “Indazolanonyl derivative of benzopyran” (American Home Products Corporation, priority 1992, dated 1993).

Data set [1] concerns spontaneously hypertensive rats (SHR). The data set is described as follows: Blood pressure lowering and heart rate in conscious spontaneously hypertensive rats, oral. The data set is classed as in vivo, rat (male Okamoto-Aoki SHR). An excerpt: The blood pressure lowering activity of the compounds of this invention was established in accordance with standard pharmaceutically accepted test procedures in representative compounds as follows:
Male Okamoto-Aoki spontaneously hypertensive rats (SHR) ranging in weight from 250-400 g were anesthetized with halothane. Their left femoral arteries and veins were cannulated with polyethylene tubing of the appropriate size (i.d. 0.023", o.d. 0.038"). Each animal was placed in a Bollman cage, and the tail, along with two cannulas, was extended through a hole in one end of the cage. The tail was taped securely to a firm rubber board to prevent the rat from turning in its cage to dislodge the cannulas. The femoral arterial cannula was connected to a Statham pressure transducer which in turn was attached to a polygraph for recording arterial pressure and pulse rate. The pulse rate was considered to be the heart rate.
After the blood pressure has stabilized (usually 2 hours after cessation of the anesthesia), standard agonists were injected by the i.v. route. The doses administered were: isoproterenol 0.5 μg/kg, adrenaline 2.0 μg/kg, tyramine 200 μg/kg and angiotensin-I 0.25 μg/kg. The agonists were given in random order except that tyramine was never preceded by isoproterenol as the response to tyramine seemed to be blunted after a prior injection of isoproterenol. Enough time was allowed for the BP to return to preinjection levels before the test compound was administered by gastric lavage. The time of drug administration was designated as time zero. Heart rate and blood pressure were recorded at 5,10,15,30,45 and 60 minutes and hourly thereafter for a period of 4 hours after drug administration. At 1 and 2 hours post-drug the agonists were again injected at the same concentration and in the same order as during the control period.
For each dose, the maximum fall in blood pressure was given in mm Hg and also expressed as a percentage decrease compared to pretreatment control values. Linear regression on the maximum decrease in mean arterial blood pressure at each dose was used to calculate the ED30 (the dose which would lower mean arterial pressure by 30%). A decrease in mean arterial blood pressure of 30% reduces the blood pressure from the hypertensive to the normotensive range.

Data set [2] deals with isolated rat bladder strips. Kind of data set: Inhibition of contractions in isolated rat bladder strips. On the set-up: species or system rat (Sprague-Dawley). The settings on record: for IC50: 0.5 h, additional 15 mM KCl, 30 min challenge. An excerpt:
In addition, smooth muscle relaxing activity of the compounds of this invention was established in accordance with standard pharmaceutically accepted test procedures in representative compounds as follows:
Sprague-Dawley rats (150-200 g) are rendered unconscious by CO2 asphyxiation and then euthanized by cervical dislocation. The bladder is removed into warm (37 deg.C.) physiological salt solution (PSS) of the following composition (mM): NaCl, 118.4; KCl, 4.7; CaCl2, 2.5; […]; NaHCO3, 24.9; KH2 PO4, 1.2; glucose, 11.1; EDTA, 0.023; gassed with […]; pH 7.4. The bladder is opened and then cut into strips 1-2 mm in width and 7-10 mm in length. The strips are subsequently suspended in a 10 ml tissue bath under an initial resting tension of 1.5 g. The strips are held in place by two surgical clips one of which is attached to fixed hook while the other is attached to an isometric force transducer. […] The carbachol is then washed out and the tissue allowed to relax to its resting level of activity. Following 1 further 30 min period of recovery an additional 15 mM KCl are introduced into the tissue bath. This increase in KCl concentration results in a large increase in the amplitude of spontaneous contractions (and initiation of contractions in previously quiescent strips) superimposed upon a small increase in basal tone. Following stabilization of this enhanced level of contractile activity, incremental increases in the concentration of test compound or vehicle are introduced into the tissue bath. Contractile activity is measured for each compound or vehicle concentration during the last min of a 30 min challenge.
Isometric force developed by the bladder strips is measured using a […] to elicit 50% inhibition of pre-drug contractile activity (IC50 concentration) is calculated from this concentration-response curve. The maximum percentage inhibition of contractile activity evoked by a test compound is also recorded for concentrations of test compound<or equal to 30 uM.

The IC50 is the point on the concentration scale where inhibition reaches its midpoint. Low values mean higher potency, high ones lower potency. In general, inhibition refers to how much of the control response was suppressed. For the molecule `CC1(C)Oc2ccc(OC(F)(F)F)cc2[C@@H](n2[nH]c3ccccc3c2=O)[C@@H]1O` [Example 1, (-)-2-[(3S,4R)-3-Hydroxy-2,2-dimethyl-6-trifluoromethoxy-chroman-4-yl]-1,2-dihydro-indazol-3-one], in data set [1] (0.1 mg/kg p.o., 15 m), the “Max Δ BP (mean arterial blood pressure)” value is on record as -41 mm Hg; the “Max Δ BP, %” value was -21 ± 3%; the “Max Δ HR (heart rate)” value is “+58 beats/min”; the “Max Δ HR, %” value is on record as “+16 ± 6%”. Further, in data set [1] (0.1 mg/kg p.o., 2 h), the “Δ BP (mean arterial blood pressure)” value is -13 mm Hg; the “Δ BP, %” value is recorded as -7 ± 2%; the “Δ HR (heart rate)” value was -29 beats/min; the “Δ HR, %” value is -7 ± 3%. In data set [1] (0.3 mg/kg p.o., 30 m), the “Max Δ BP (mean arterial blood pressure)” value is reported as -102 mm Hg; the “Max Δ BP, %” value is recorded as -55 ± 2%; the “Max Δ HR (heart rate)” value is “+90 beats/min”; the “Max Δ HR, %” value is given as “+25 ± 6%”. In data set [1] (0.3 mg/kg p.o., 4 h), the “Δ BP (mean arterial blood pressure)” value is listed as -22 mm Hg; the “Δ BP, %” value was -12 ± 4%; the “Δ HR (heart rate)” value is listed as “+36 beats/min”; the “Δ HR, %” value is “+10 ± 4%”. Besides, in data set [1] (1.0 mg/kg p.o., 45 m), the “Max Δ BP (mean arterial blood pressure)” value is reported as -112 mm Hg; the “Max Δ BP, %” value is on record as -59 ± 4%; the “Max Δ HR (heart rate)” value was “+41 beats/min”; the “Max Δ HR, %” value is given as “+11 ± 12%”. In data set [1] (1.0 mg/kg p.o., 4 h), the “Δ BP (mean arterial blood pressure)” value is -92 mm Hg; the “Δ BP, %” value is -47 ± 15%; the “Δ HR (heart rate)” value was -31 beats/min; the “Δ HR, %” value is listed as -9 ± 13%. The same molecule showed an IC50 in data set [2] of 44 nM. Besides, the inhibition at 0.3 µM in data set [2] (at 0.3 μM, read-out: Inhibition of Force (%) at (x) μM) amounted to 100%.
As for `Cn1c2ccccc2c(=O)n1[C@@H]1c2cc(OC(F)(F)F)ccc2OC(C)(C)[C@H]1O` [Example 2, (-)-2-[(3S,4R)-3-Hydroxy-2,2-dimethyl-6-trifluoromethoxy-chroman-4-yl]-1-methyl-1,2-dihydro-indazol-3-one], in data set [1] (1.0 mg/kg p.o., 45 m), the “Max Δ BP (mean arterial blood pressure)” value is -22 mm Hg; the “Max Δ BP, %” value is listed as -13 ± 2%; the “Max Δ HR (heart rate)” value is reported as “+17 beats/min”; the “Max Δ HR, %” value was “+4 ± 1%”. The molecule further returned an IC50 in data set [2] of 9000 nM. In data set [2] (at 10 μM, read-out: Inhibition of Force (%) at (x) μM), the inhibition at 10 µM amounted to 58%.
Consider `CC1(C)Oc2ccc(OC(F)(F)F)cc2[C@H](n2[nH]c3ccccc3c2=O)[C@H]1O` [Example 7, (+)-2-[(3R,4S)-3-Hydroxy-2,2-dimethyl-6-trifluoromethoxychroman-4-yl]-1,2-dihydro-indazol-3-one], for which, in data set [1] (0.1 mg/kg p.o., 5 m), the “Max Δ BP (mean arterial blood pressure)” value was -12 mm Hg; the “Max Δ BP, %” value was -7 ± 1%; the “Max Δ HR (heart rate)” value is “+39 beats/min”; the “Max Δ HR, %” value was “+10 ± 3%”. Moreover, in data set [1] (1.0 mg/kg p.o., 30 m), the “Max Δ BP (mean arterial blood pressure)” value was -96 mm Hg; the “Max Δ BP, %” value is recorded as -51 ± 1%; the “Max Δ HR (heart rate)” value is reported as “+114 beats/min”; the “Max Δ HR, %” value is given as “+31 ± 7%”. Moreover, in data set [1] (1.0 mg/kg p.o., 4 h), the “Δ BP (mean arterial blood pressure)” value is -20 mm Hg; the “Δ BP, %” value is recorded as -11 ± 2%; the “Δ HR (heart rate)” value is reported as “+38 beats/min”; the “Δ HR, %” value is “+10 ± 4%”.
Take `Cc1ccc2[nH]n([C@@H]3c4cc(OC(F)(F)F)ccc4OC(C)(C)[C@H]3O)c(=O)c2c1` [Example 8, (-)-2-[(3S,4R)-3-Hydroxy-2,2-dimethyl-6-trifluoromethoxy-chroman-4-yl]-5-methyl-1,2-dihydro-indazol-3-one]: half-maximal inhibition in data set [2] (IC50) was put at 11 nM.
